Earlier results, collected in US10517855B1, “Interleukins activity inhibiting composition” (priority 2019, dated 2019).

Assays:
[1] = tested on: MK-801-induced hyperlocomotion, working memory deficit and social withdrawal; details: preclinical studies
[2] = preclinical studies
[3] = tested on: amphetamine-induced lethality and stereotypy; details: preclinical studies
[4] = tested on: apomorphine-induced stereotypy; details: preclinical studies
[5] = tested on: haloperidol-induced catalepsy; details: preclinical studies
avian malaria = details: in vivo

| Structure (SMILES) | MK-801-induced hyperlocomotion [1] | MK-801-induced social withdrawal [1] | MK-801-induced working memory deficit [1] | anxiolytic-like effects [2] | amphetamine-induced lethality [3] | amphetamine-induced stereotypy [3] | apomorphine-induced stereotypy [4] | haloperidol-induced catalepsy [5] | activity against avian malaria (avian malaria) |
| --- | --- | --- | --- | --- | --- | --- | --- | --- | --- |
| COC(=O)C1=CO[C@@H](C)[C@@H]2Cn3ccc4c5ccccc5nc-4c3C[C@H]12 [Alstonine] | attenuates | attenuates | attenuates | possesses anxiolytic-like effects | attenuates | attenuates | attenuates | attenuates | – |
| C/C=C1/CN2CC[C@@]34c5cc(O)ccc5N(C)[C@]35OC[C@@]4(C(=O)OC)[C@H]1C[C@H]25 [akuammine] | – | – | – | – | – | – | – | – | inactive |
